One assay concerns Staphylococcus aureus. Description: Antimicrobial activity against Staphylococcus aureus ATCC 25923. Format: functional.
Another assay relates to Nannizzia gypsea. As to the kind of experiment: Antimicrobial activity against Microsporum gypseum SH-MU-4. Format: functional.

In brackets after ≈: the same amount, converted by molar mass.

With `C=C[C@]1(C)C=C2C(=O)[C@]3(O)OC[C@@]4(CCCC(C)(C)[C@@]43O)[C@@]2(O)[C@H](O)C1` [DIAPORTHEIN B], in the assay with Staphylococcus aureus, the MIC (commonly the least concentration at which growth counts as inhibited) was determined as 87.8 µM (≈ 32 µg/mL).
`COc1ccc(C[C@@H]2NC(=O)[C@@]34OC(=O)O/C=C/[C@@](C)(O)C(=O)[C@@H](C)C/C=C/[C@H]3[C@H](O)[C@](C)(O)[C@@H](C)[C@@H]24)cc1` [SCOPARASIN B] had an MIC against Nannizzia gypsea of 30.3 µM (≈ 16.5 µg/mL). In other words, the double-digit micromolar range.

(Values after ChEMBL document CHEMBL1157959, “Pimarane diterpene and cytochalasin derivatives from the endophytic fungus Eutypella scoparia PSU-D44” (2006).)
